As a reminder, the IC50 is the concentration at which inhibition is half-maximal.

Molecules are shown by their SMILES.

These results are taken from patent US20260315452A1, “PROTEASE INHIBITORS AND USES THEREOF” (priority 2023, published 2026).

The experiment has as its target SARS-CoV-2 3CLpro (Severe acute respiratory syndrome coronavirus 2, UniProt P0DTD1). Kind of experiment: biochemical. To be noted: inhibition of SARS-CoV-2 3CLpro; 15 nM 3CLpro, 25 μM fluorogenic substrate, 37° C.; read-out: Inhibitory Activity (IC50).

For `CNC(=O)c1cc(Br)cc([N+](=O)[O-])c1NC(C(C)C)C1CN(C(=O)c2cncc3ccccc23)C1` (stereo in doubt) [Compound 15, (R)-5-bromo-2-((1-(1-(isoquinoline-4-carbonyl)azetidin-3-yl)-2-methylpropyl)amino)-N-methyl-3-nitrobenzamide], the IC50 was at least 10000 nM. The figure for `CNC(=O)c1cc(Br)cc([N+](=O)[O-])c1N[C@@H]1CCCC[C@@H]1NC(=O)c1cncnc1` [Compound 2, N-((1S, 2R)-2-((4-bromo-2-(methylcarbamoyl)-6-nitrophenyl)amino)cyclohexyl) pyrimidine-5-carboxamide] is at least 10000 nM.

Consider `CNC(=O)c1cc(Br)cc([N+](=O)[O-])c1N[C@@H]1CCCC[C@@H]1NC(=O)c1cncc(N)c1` [Compound 3, 5-amino-N-((1S, 2R)-2-((4-bromo-2-(methylcarbamoyl)-6-nitrophenyl)amino)cyclohexyl)nicotinamide], for which the IC50 lay in the range of 1000 to 10000 nM.

For `CNC(=O)c1cc(Br)cc([N+](=O)[O-])c1N[C@@H]1CCCC[C@@H]1NC(=O)c1cncc(OC)c1` [Compound 4, N-((1S, 2R)-2-((4-bromo-2-(methylcarbamoyl)-6-nitrophenyl)amino)cyclohexyl)-5-methoxynicotinamide], the IC50 lay within 1000 to 10000 nM. Turning to `CNC(=O)c1cc(Br)cc([N+](=O)[O-])c1N[C@@H]1CCCC[C@@H]1NC(=O)c1cncc(CNC(=O)OC(C)(C)C)c1` [Compound 5, tert-butyl ((5-(((1S, 2R)-2-((4-bromo-2-(methylcarbamoyl)-6-nitrophenyl)amino)cyclohexyl)carbamoyl)pyridin-3-yl)methyl)carbamate], the IC50 was at least 10000 nM.

With `CNC(=O)c1cc(Br)cc([N+](=O)[O-])c1N[C@@H]1CCCC[C@@H]1NC(=O)c1cncc(CN)c1` [Compound 6, 5-(aminomethyl)-N-((1S,2R)-2-((4-bromo-2-(methylcarbamoyl)-6-nitrophenyl)amino)cyclohexyl) nicotinamide], the IC50 is at least 10000 nM. Turning to `CNC(=O)c1cc(Br)cc([N+](=O)[O-])c1N1CCC2(CN(C(=O)c3cncc4ccccc34)C2)C1` [Compound 10, 5-bromo-2-(2-(isoquinoline-4-carbonyl)-2,6-diazaspiro[3, 4]octan-6-yl)-N-methyl-3-nitrobenzamide], the IC50 is at least 10000 nM. `CC(C)C(Nc1c(-c2nnc[nH]2)cc(Br)cc1[N+](=O)[O-])C1CN(C(=O)c2cncc3ccccc23)C1` (stereo not shown) [Compound 17, (3-(1-((4-bromo-2-nitro-6-(4H-1,2,4-triazol-3-yl)phenyl)amino)-2-methylpropyl)azetidin-1-yl)(isoquinolin-4-yl)methanone]: the IC50 is 100 to 1000 nM. As for `CNC(=O)c1cc(Br)cc([N+](=O)[O-])c1N[C@@H]1CCCCN(C(=O)c2cnc3ccccc3c2)C1` [Compound 20, (R)-5-bromo-N-methyl-3-nitro-2-((1-(quinoline-3-carbonyl)azepan-3-yl)amino)benzamide], the IC50 was in the range of 100 to 1000 nM. For `CNC(=O)c1cc(Br)cc([N+](=O)[O-])c1N1CCC2(CCN(C(=O)c3cncnc3)C2)C1` (stereo not shown) [Compound 21], the IC50 was at least 10000 nM. As for `O=C(NC1CC(F)(F)C1)c1cc(Br)cc([N+](=O)[O-])c1N1CCC2(CCN(C(=O)c3cncc(C(F)(F)F)c3)C2)C1` (stereo not shown) [Compound 22, 5-bromo-N-(3,3-difluorocyclobutyl)-3-nitro-2-(7-(5-(trifluoromethyl)nicotinoyl)-2,7-diazaspiro[4.4]nonan-2-yl)benzamide], the IC50 fell in the range of 1000 to 10000 nM. In the case of `COc1cncc(C(=O)N2CCC3(CCN(c4c(C(=O)NC5CC(F)(F)C5)cc(Br)cc4[N+](=O)[O-])C3)C2)c1` (stereo not shown) [Compound 23, 5-bromo-N-(3,3-difluorocyclobutyl)-2-(7-(5-methoxynicotinoyl)-2,7-diazaspiro[4.4]nonan-2-yl)-3-nitrobenzamide], the IC50 lay in the range of 1000 to 10000 nM.

On to `Cc1c(Cl)cncc1C(=O)N1CCC2(CCN(c3c(C(=O)NC4CC(F)(F)C4)cc(Br)cc3[N+](=O)[O-])C2)C1` (stereo not shown) [Compound 24, 5-bromo-2-(7-(5-chloro-4-methylnicotinoyl)-2,7-diazaspiro[4.4]nonan-2-yl)-N-(3,3-difluorocyclobutyl)-3-nitrobenzamide], for which the IC50 fell in the range of 1000 to 10000 nM.

Take `CNC(=O)c1cc(Br)cc([N+](=O)[O-])c1N1CC[C@H](CNC(=O)c2cncc3ccccc23)C1` [Compound 25, (R)-N-((1-(4-bromo-2-(methylcarbamoyl)-6-nitrophenyl)pyrrolidin-3-yl)methyl)isoquinoline-4-carboxamide]: the IC50 is 100 to 1000 nM. In the case of `CNC(=O)c1cc(Br)cc([N+](=O)[O-])c1N[C@H]1CN(Cc2cncc3ccccc23)CCC1(F)F` [Compound 32, (S)-5-bromo-2-((4,4-difluoro-1-(isoquinolin-4-ylmethyl)piperidin-3-yl)amino)-N-methyl-3-nitrobenzamide], the IC50 lay within 100 to 1000 nM.

As for `COC1CN(C(=O)c2cc(Br)cc([N+](=O)[O-])c2N[C@H]2CN(C(=O)c3cncc4ccccc34)CCC2(F)F)C1` [Compound 38, (S)-(5-bromo-2-((4,4-difluoro-1-(isoquinoline-4-carbonyl)piperidin-3-yl)amino)-3-nitrophenyl)(3-methoxyazetidin-1-yl)methanone], the IC50 is below 100 nM. Consider `CNC(=O)c1cc(Br)cc([N+](=O)[O-])c1N[C@H]1CN(C(=O)c2cncc(-n3cccn3)c2)CCC1(F)F` [Compound 39, (S)-2-((1-(5-(1H-pyrazol-1-yl)nicotinoyl)-4,4-difluoropiperidin-3-yl)amino)-5-bromo-N-methyl-3-nitrobenzamide], for which the IC50 lay within 100 to 1000 nM. As to `NC(=O)c1cc(Br)cc([N+](=O)[O-])c1N[C@H]1CN(C(=O)c2cncc3ccccc23)CCC1(F)F` [Compound 49, (S)-5-bromo-2-((4,4-difluoro-1-(isoquinoline-4-carbonyl)piperidin-3-yl)amino)-3-nitrobenzamide], the IC50 was below 100 nM. Next, `CNC(=O)c1cc(Br)cc([N+](=O)[O-])c1N[C@H]1CN(C(=O)c2cncc3ccccc23)C[C@@H]1C` [Compound 50, 5-bromo-2-[[(3R, 4S)-1-(isoquinoline-4-carbonyl)-4-methyl-pyrrolidin-3-yl]amino]-N-methyl-3-nitro-benzamide]: below 100 nM; `COC(=O)c1cc(Br)cc([N+](=O)[O-])c1N[C@@H]1CCCC[C@@H]1NC(=O)c1cncc2ccccc12` [Compound 51, methyl 5-bromo-2-(((1R, 2S)-2-(isoquinoline-4-carboxamido)cyclohexyl)amino)-3-nitrobenzoate]: 100 to 1000 nM. For `O=C(O)c1cc(Br)cc([N+](=O)[O-])c1N[C@@H]1CCCC[C@@H]1NC(=O)c1cncc2ccccc12` [Compound 52, 5-bromo-2-(((1R, 2S)-2-(isoquinoline-4-carboxamido)cyclohexyl)amino)-3-nitrobenzoic acid], the IC50 was 1000 to 10000 nM. The figure for `NNC(=O)c1cc(Br)cc([N+](=O)[O-])c1N[C@@H]1CCCC[C@@H]1NC(=O)c1cncc2ccccc12` [Compound 54, N-((1S,2R)-2-((4-bromo-2-(hydrazinecarbonyl)-6-nitrophenyl)amino)cyclohexyl)isoquinoline-4-carboxamide] is 1000 to 10000 nM; for `O=C(NC1CC(F)(F)C1)c1cc(Br)cc([N+](=O)[O-])c1N[C@@H]1CCCC[C@@H]1NC(=O)c1cncc2ccccc12` [Compound 56, N-((1S, 2R)-2-((4-bromo-2-((3,3-difluorocyclobutyl)carbamoyl)-6-nitrophenyl)amino)cyclohexyl)isoquinoline-4-carboxamide] it is below 100 nM; for `CNC(=O)c1cc(Br)cc(S(C)(=O)=O)c1N[C@@H]1CCCC[C@@H]1NC(=O)c1cncc2ccccc12` [Compound 57, N-((1S,2R)-2-((4-bromo-2-(methylcarbamoyl)-6-(methylsulfonyl)phenyl)amino)cyclohexyl) isoquinoline-4-carboxamide] it is at least 10000 nM. `CNC(=O)c1cc(Br)cc([N+](=O)[O-])c1NC(C1CC1)C1CN(C(=O)c2cncc3ccccc23)C1` (stereo not shown) [Compound 58, 5-bromo-2-((cyclopropyl(1-(isoquinoline-4-carbonyl)azetidin-3-yl)methyl)amino)-N-methyl-3-nitrobenzamide]: the IC50 lay within 100 to 1000 nM. As for `CNC(=O)c1cc(Br)cc([N+](=O)[O-])c1NC1(C2CN(C(=O)c3cncc4ccccc34)C2)CC1` [Compound 63, 5-bromo-2-((1-(1-(isoquinoline-4-carbonyl)azetidin-3-yl)cyclopropyl)amino)-N-methyl-3-nitrobenzamide], the IC50 lay in the range of 1000 to 10000 nM.

Consider `CC(C)C(Nc1c(-c2ncco2)cc(Br)cc1[N+](=O)[O-])C1CN(C(=O)c2cncc3ccccc23)C1` (stereo not shown) [Compound 65, (3-(1-((4-bromo-2-nitro-6-(oxazol-2-yl)phenyl)amino)-2-methylpropyl)azetidin-1-yl)(isoquinolin-4-yl)methanone], for which the IC50 was in the range of 1000 to 10000 nM. Turning to `CNC(=O)c1cc(Br)cc([N+](=O)[O-])c1N1CCc2[nH]nc(-c3cncc4ccccc34)c2C1` [Compound 69, 5-bromo-2-(3-(isoquinolin-4-yl)-1,4,6,7-tetrahydro-5H-pyrazolo[4,3-c]pyridin-5-yl)-N-methyl-3-nitrobenzamide], the IC50 was 1000 to 10000 nM. With `CNC(=O)c1cc(Br)cc([N+](=O)[O-])c1NC(C(C)C)C1CN(C(=O)c2cncnc2)C1` (stereo not shown) [Compound 71, 5-bromo-N-methyl-2-((2-methyl-1-(1-(pyrimidine-5-carbonyl)azetidin-3-yl)propyl)amino)-3-nitrobenzamide], the IC50 lay in the range of 1000 to 10000 nM. The figure for `CNC(=O)c1cc(Br)cc([N+](=O)[O-])c1NC(C(C)C)C1CN(C(=O)c2cncc(C(F)(F)F)c2)C1` (stereo not shown) [Compound 73, 5-bromo-N-methyl-2-((2-methyl-1-(1-(5-(trifluoromethyl)nicotinoyl)azetidin-3-yl)propyl)amino)-3-nitrobenzamide] is 1000 to 10000 nM; for `Cc1c(F)cncc1C(=O)N1CCC2(CCN(c3c(C(=O)NC4CC(F)(F)C4)cc(Br)cc3[N+](=O)[O-])C2)C1` (stereo not shown) [Compound 76, 5-bromo-N-(3,3-difluorocyclobutyl)-2-(7-(5-fluoro-4-methylnicotinoyl)-2,7-diazaspiro[4.4]nonan-2-yl)-3-nitrobenzamide] it is 1000 to 10000 nM.
